Experimental data as given in patent US20240245694A1, “Tricyclic Compounds and their Uses” (Novartis AG, priority 2022, published 2024).

Experiments:
[1] = target: WRN helicase (core helicase motif aa N517-P1238) (Homo sapiens (Human), UniProt Q14191); experiment: WRN ATPase assay (ADP-Glo), DNA dependent ATP hydrolysis; type: biochemical; conditions: 3 hours pre-incubation, 300 micromolar ATP, FLAP26 ssDNA; geometric means of at least 2 determinations
How it was run: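 Uses the WRN core helicase (aa N517-P1238) with single-strand 45-mer FLAP26 DNA in Tris pH 7.5, MgCl2, NaCl, BSA and pluronic buffer. Compound was pre-incubated 3 h with enzyme and ATP; reaction then run with 10 nM WRN, 0.2 nM FLAP26 and 300 µM ATP for 30 min at room temperature. ADP quantified by ADP-Glo luminescence; IC50 from duplicate 4-parameter fits, geometric mean of ≥2 runs.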

DLD1-WRN-KO cells = experiment: Proliferation assay DLD1-WRN-KO (CellTiterGlo, 96 hours), off-target effects; type: cell-based; conditions: Homo sapiens
How it was run: (§1)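 Cells in RPMI-1640/10% FCS were seeded overnight (SW48 2'000, DLD1-WRN-KO 1'500 cells/well), then exposed to eight 3-fold compound dilutions at 0.1% DMSO. ATP luminescence relative to a day-0 plate gives % growth (0% stasis, −100% complete kill). GI50 is the geometric mean of ≥2 independent replicates.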

SW48 cells = experiment: Proliferation assay SW48 (CellTiterGlo, 96 hours); type: cell-based; conditions: Homo sapiens
How it was run: as §1

Chain of WRN helicase (core helicase motif aa N517-P1238) (Q14191 517-1238): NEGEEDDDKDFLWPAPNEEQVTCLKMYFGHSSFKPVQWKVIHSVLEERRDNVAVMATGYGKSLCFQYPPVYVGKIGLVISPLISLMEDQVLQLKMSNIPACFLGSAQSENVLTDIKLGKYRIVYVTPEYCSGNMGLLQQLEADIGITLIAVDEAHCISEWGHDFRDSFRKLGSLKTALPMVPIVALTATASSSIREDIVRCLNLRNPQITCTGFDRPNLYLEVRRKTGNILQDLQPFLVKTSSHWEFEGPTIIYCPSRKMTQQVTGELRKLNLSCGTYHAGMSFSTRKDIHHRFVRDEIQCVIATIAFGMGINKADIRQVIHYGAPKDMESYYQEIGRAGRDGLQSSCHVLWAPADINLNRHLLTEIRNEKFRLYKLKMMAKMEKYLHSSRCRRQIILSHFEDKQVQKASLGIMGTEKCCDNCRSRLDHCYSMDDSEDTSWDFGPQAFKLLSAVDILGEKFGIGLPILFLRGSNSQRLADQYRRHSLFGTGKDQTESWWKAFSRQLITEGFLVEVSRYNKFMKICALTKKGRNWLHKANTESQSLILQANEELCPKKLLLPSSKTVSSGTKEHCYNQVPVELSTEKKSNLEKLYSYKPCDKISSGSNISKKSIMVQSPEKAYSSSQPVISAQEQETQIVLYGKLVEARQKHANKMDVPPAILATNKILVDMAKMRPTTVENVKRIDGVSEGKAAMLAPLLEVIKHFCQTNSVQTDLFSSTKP

| SMILES | IC50 [1] [µM] | GI50 (DLD1-WRN-KO cells) [µM] | GI50 (SW48 cells) [µM] |
| --- | --- | --- | --- |
| Cc1ncnc(C(=O)N2CCN(c3c4n(c5nc(C6=CCOCC6)nn5c3=O)[C@H](C(=O)Nc3ccc(C(F)(F)F)nc3Cl)C[C@@H]4C)CC2)c1O [Example 4B, (7S,9S)—N-(2-chloro-6-(trifluoromethyl)pyridin-3-yl)-2-(3,6-dihydro-2H-pyran-4-yl)-6-(4-(5-hydroxy-6-methylpyrimidine-4-carbonyl)piperazin-1-yl)-7-methyl-5-oxo-5,7,8,9-tetrahydropyrrolo[1,2-c][1,2,4]triazolo[1,5-a]pyrimidine-9-carboxamide] | 9 | > 10 | 6 |
| Cc1ncnc(C(=O)N2CCN(c3c4n(c5nc(C6=CCOCC6)nn5c3=O)[C@@H](C(=O)Nc3ccc(C(F)(F)F)cc3Cl)C[C@@H]4C)CC2)c1O [Example 14C, (7S,9R)—N-(2-chloro-4-(trifluoromethyl)phenyl)-2-(3,6-dihydro-2H-pyran-4-yl)-6-(4-(5-hydroxy-6-methylpyrimidine-4-carbonyl)piperazin-1-yl)-7-methyl-5-oxo-5,7,8,9-tetrahydropyrrolo[1,2-c][1,2,4]triazolo[1,5-a]pyrimidine-9-carboxamide] | 0.1 | > 10 | 0.3 |
| C[C@@H]1C[C@H](C(=O)Nc2ccc(C(F)(F)F)cc2Cl)n2c1c(N1CCN(C(=O)c3ncc4c(c3O)OCC4)CC1)c(=O)n1nc(C3=CCOCC3)nc21 [Example 5A, (7R,9R)—N-(2-chloro-4-(trifluoromethyl)phenyl)-2-(3,6-dihydro-2H-pyran-4-yl)-6-(4-(7-hydroxy-2,3-dihydrofuro[3,2-c]pyridine-6-carbonyl)piperazin-1-yl)-7-methyl-5-oxo-5,7,8,9-tetrahydropyrrolo[1,2-c][1,2,4]triazolo[1,5-a]pyrimidine-9-carboxamide] | 0.02 | > 10 | 0.03 |
| Cc1cc(F)c(O)c(C(=O)N2CCN(c3c4n(c5nc(N6CCOCC6)nn5c3=O)[C@H](C(=O)Nc3ccc(C(F)(F)F)cc3Cl)C[C@@H]4C)CC2)n1 [Example 3B, (7S,9S)—N-(2-chloro-4-(trifluoromethyl)phenyl)-6-(4-(4-fluoro-3-hydroxy-6-methylpicolinoyl)piperazin-1-yl)-7-methyl-2-morpholino-5-oxo-5,7,8,9-tetrahydropyrrolo[1,2-c][1,2,4]triazolo[1,5-a]pyrimidine-9-carboxamide] | 6 | > 10 | > 10 |
| C[C@@H]1C[C@H](C(=O)Nc2ccc(C(F)(F)F)cc2Cl)n2c1c(N1CCN(C(=O)c3ncccc3O)CC1)c(=O)n1nc(C3=CCOCC3)nc21 [Example 11, (7R,9R)—N-(2-chloro-4-(trifluoromethyl)phenyl)-2-(3,6-dihydro-2H-pyran-4-yl)-6-(4-(3-hydroxypicolinoyl)piperazin-1-yl)-7-methyl-5-oxo-5,7,8,9-tetrahydropyrrolo[1,2-c][1,2,4]triazolo[1,5-a]pyrimidine-9-carboxamide] | 0.05 | > 10 | 0.04 |

Continued, values first:

| IC50 [1] [µM] | GI50 (DLD1-WRN-KO cells) [µM] | GI50 (SW48 cells) [µM] | SMILES |
| --- | --- | --- | --- |
| 2 | > 10 | 4 | CC(=O)N1CCN(c2c3n(c4nc(C5=CCOCC5)nn4c2=O)C(C(=O)Nc2ccc(C(F)(F)F)cc2)CC3)CC1 (racemic) [Example 24, rac-6-(4-acetylpiperazin-1-yl)-2-(3,6-dihydro-2H-pyran-4-yl)-5-oxo-N-(4-(trifluoromethyl)phenyl)-5,7,8,9-tetrahydropyrrolo[1,2-c][1,2,4]triazolo[1,5-a]pyrimidine-9-carboxamide] |
| 0.05 | > 10 | 0.03 | Cc1cc(C(F)(F)F)ccc1NC(=O)[C@H]1C[C@@H](C)c2c(N3CCN(C(=O)c4ncccc4O)CC3)c(=O)n3nc(C4=CCOCC4)nc3n21 [Example 15A, (7R,9R)-2-(3,6-dihydro-2H-pyran-4-yl)-6-(4-(3-hydroxypicolinoyl)piperazin-1-yl)-7-methyl-N-(2-methyl-4-(trifluoromethyl)phenyl)-5-oxo-5,7,8,9-tetrahydropyrrolo[1,2-c][1,2,4]triazolo[1,5-a]pyrimidine-9-carboxamide] |
| 18 | > 10 | 8 | Cc1cc(C(F)(F)F)ccc1NC(=O)[C@@H]1C[C@H](C)c2c(N3CCN(C(=O)c4ncccc4O)CC3)c(=O)n3nc(C4=CCOCC4)nc3n21 [Example 15B, (7S,9S)-2-(3,6-dihydro-2H-pyran-4-yl)-6-(4-(3-hydroxypicolinoyl)piperazin-1-yl)-7-methyl-N-(2-methyl-4-(trifluoromethyl)phenyl)-5-oxo-5,7,8,9-tetrahydropyrrolo[1,2-c][1,2,4]triazolo[1,5-a]pyrimidine-9-carboxamide] |
